Measurements: patent publication US20240317721A1, “PYRAZOLYL DERIVATIVES AS INHIBITORS OF THE KRAS MUTANT PROTEIN” (NOVARTIS AG, priority 2021, published 2024)

Target: KRasG12C (M1-K169, biotinylated on the N-terminus) (Homo sapiens (Human), UniProt P01116, G12C)
Assay: Covalent competition assay: scintillation proximity assay (SPA) quantifying covalent modification of KRASG12C
Format: binding
Settings: competition with radiolabeled covalent probe (Compound B/Compound A), 2 hours incubation, 10 nM KRasG12C
Procedure, shortened: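 Scintillation proximity readout after streptavidin bead capture (30 min) of biotinylated KRasG12C(M1-K169):GDP, 10 nM final, which was covalently labelled over 2 h by 25 nM radio-probe plus 475 nM cold probe unless blocked by compound.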

Row | Compound | IC50 [nM]
1 | C=CC(=O)N1CC2(CC(n3nc(N4CCN(C5CCCOC5)C[C@]4(C)CC)c(-c4c(Cl)c(C)cc5[nH]ncc45)c3C)C2)C1 (single isomer, unassigned) [Example 157d] | 7
2 | C=CC(=O)N1CC2(CC(n3nc(N4CCC(O)(CN5CCOCC5)CC4(C)C)c(-c4c(Cl)c(Cl)cc5[nH]ncc45)c3C)C2)C1 (single isomer, unassigned) [Example 238a, 1-(6-(4-(5,6-dichloro-1H-indazol-4-yl)-3-(4-hydroxy-2,2-dimethyl-4-(morpholinomethyl)piperidin-1-yl)-5-methyl-1H-pyrazol-1-yl)-2-azaspiro[3.3]heptan-2-yl)prop-2-en-1-one] | 36
3 | C=CC(=O)N1CC2(CC(n3nc(N4CC(=O)N(C)CC45CCC5)c(-c4c(Cl)c(C)cc5[nH]ncc45)c3C)C2)C1 (single isomer, unassigned) [Example 65b, 5-(1-(2-acryloyl-2-azaspiro[3.3]heptan-6-yl)-4-(5-chloro-6-methyl-1H-indazol-4-yl)-5-methyl-1H-pyrazol-3-yl)-8-methyl-5,8-diazaspiro[3.5]nonan-7-one] | 212
4 | C=CC(=O)N1C[C@]2(C[C@H](n3nc(N4CC[C@@H](CN5CCN(C6COC6)CC5)CC4(C)C)c(-c4c(Cl)c(Cl)cc5[nH]ncc45)c3C)C2)[C@H]1C (single isomer, unassigned) [Example 201a] | 4300
5 | C=CC(=O)N1CC2(CC(n3nc(N4CC[C@@H](CN5CC6(C5)CN(C)C(=O)O6)CC4(C)C)c(-c4c(Cl)c(Cl)cc5[nH]ncc45)c3C)C2)C1 (single isomer, unassigned) [Example 284a] | 1600
6 | C=CC(=O)N1CC2(CC(n3nc(N4CCN(C(C)=O)CC4(C)C)c(-c4c(C)c(C)cc5[nH]ncc45)c3C)C2)C1 (single isomer, unassigned) [Example 1b, 1-(6-(3-(4-Acetyl-2,2-dimethylpiperazin-1-yl)-4-(5,6-dimethyl-1H-indazol-4-yl)-5-methyl-1H-pyrazol-1-yl)-2-azaspiro[3.3]heptan-2-yl)prop-2-en-1-one] | 10700
7 | C=CC(=O)N1CC2(CC(n3nc(N4CC[C@@H](CN5CCOC6(C5)CN(C(C)=O)C6)CC4(C)C)c(-c4c(Cl)c(Cl)cc5[nH]ncc45)c3C)C2)C1 (single isomer, unassigned) [Example 311b] | 18
8 | C=CC(=O)N1CC2(CC(n3nc(N4CCC(N(C)C5COC5)CC4(C)C)c(-c4c(Cl)c(Cl)cc5[nH]ncc45)c3C)C2)C1 (single isomer, unassigned) [Example 50b, 1-(6-(4-(5,6-dichloro-1H-indazol-4-yl)-3-(2,2-dimethyl-4-(methyl(oxetan-3-yl)amino)piperidin-1-yl)-5-methyl-1H-pyrazol-1-yl)-2-azaspiro[3.3]heptan-2-yl)prop-2-en-1-one] | 5
9 | C=CC(=O)N1CC2(CC(n3nc(N4CC[C@@H](CN5CCN(C6COC6)CC5)CC4(C)C)c(-c4c(Cl)c(Cl)cc5[nH]ncc45)c3C)C2)C1 (single isomer, unassigned) [Example 243b] | 6
10 | C=CC(=O)N1CC2(CC(n3nc(N4CCN(C[C@@H]5COCCO5)C[C@]4(C)COC)c(-c4c(Cl)c(C)cc5[nH]ncc45)c3C)C2)C1 (single isomer, unassigned) [Example 181a] | 929
11 | C=CC(=O)N1CC2(CC(n3nc(N4CCC(CN5CCOCC5)C4(C)C)c(-c4c(Cl)c(Cl)cc5[nH]ncc45)c3C)C2)C1 (single isomer, unassigned) [Example 219b, 1-(6-(4-(5,6-dichloro-1H-indazol-4-yl)-3-(2,2-dimethyl-3-(morpholinomethyl)pyrrolidin-1-yl)-5-methyl-1H-pyrazol-1-yl)-2-azaspiro[3.3]heptan-2-yl)prop-2-en-1-one] | 42
12 | C=CC(=O)N1CC2(CC(n3nc(N4CCC(N5C6CCC5COC6)CC4(C)C)c(-c4c(Cl)c(C)cc5[nH]ncc45)c3C)C2)C1 [Example 75a, 1-(6-(3-(4-((1R,5S)-3-oxa-8-azabicyclo[3.2.1]octan-8-yl)-2,2-dimethylpiperidin-1-yl)-4-(5-chloro-6-methyl-1H-indazol-4-yl)-5-methyl-1H-pyrazol-1-yl)-2-azaspiro[3.3]heptan-2-yl)prop-2-en-1-one] | > 5000
13 | C=CC(=O)N1CC2(CC(n3nc(N4CCC5(CN(C6COC6)C5)CC4(C)C)c(-c4c(Cl)c(C)cc5[nH]ncc45)c3C)C2)C1 (single isomer, unassigned) [Example 91a, 1-(6-(4-(5-chloro-6-methyl-1H-indazol-4-yl)-3-(6,6-dimethyl-2-(oxetan-3-yl)-2,7-diazaspiro[3.5]nonan-7-yl)-5-methyl-1H-pyrazol-1-yl)-2-azaspiro[3.3]heptan-2-yl)prop-2-en-1-one] | 2900
14 | C=CC(=O)N1CC2(CC(n3nc(N4CCN(C[C@@H]5COCCO5)CC45CCC5)c(-c4c(Cl)c(C)cc5[nH]ncc45)c3C)C2)C1 (single isomer, unassigned) [Example 169a] | > 5000
15 | C=CC(=O)N1CC2(CC(n3nc(N4CCN(C5COC5)C5COCC54)c(-c4c(Cl)c(C)cc5[nH]ncc45)c3C)C2)C1 (stereo not drawn) [Example 137a, 1-(6-(4-(5-chloro-6-methyl-1H-indazol-4-yl)-5-methyl-3-((4aS*,7aS*)-4-(oxetan-3-yl)hexahydrofuro[3,4-b]pyrazin-1(2H)-yl)-1H-pyrazol-1-yl)-2-azaspiro[3.3]heptan-2-yl)prop-2-en-1-one] | > 5000

Results, then the molecule that gave them:

Row | IC50 [nM] | Compound
16 | 13 | C=CC(=O)N1CC2(CC(n3nc(N4CC[C@@H](CN5C[C@H](O)C[C@@H](F)C5)CC4(C)C)c(-c4c(Cl)c(Cl)cc5[nH]ncc45)c3C)C2)C1 (single isomer, unassigned) [Example 300b, 1-(6-(4-(5,6-dichloro-1H-indazol-4-yl)-3-((R)-4-(((3R*,5R*)-3-fluoro-5-hydroxypiperidin-1-yl)methyl)-2,2-dimethylpiperidin-1-yl)-5-methyl-1H-pyrazol-1-yl)-2-azaspiro[3.3]heptan-2-yl)prop-2-en-1-one]
17 | 758 | C=CC(=O)N1CC2(CC(n3nc(N4CCCc5c(cnn5C)C4)c(-c4c(Cl)c(C)cc5[nH]ncc45)c3C)C2)C1 (single isomer, unassigned) [Example 43b, 1-(6-(4-(5-chloro-6-methyl-1H-indazol-4-yl)-5-methyl-3-(1-methyl-4,6,7,8-tetrahydropyrazolo[4,3-c]azepin-5(1H)-yl)-1H-pyrazol-1-yl)-2-azaspiro[3.3]heptan-2-yl)prop-2-en-1-one]
18 | 975 | C=CC(=O)N1CC2(CC(n3nc(N4CCN(C5COC5)C5COCC54)c(-c4c(Cl)c(C)cc5[nH]ncc45)c3C)C2)C1 (single isomer, unassigned) [Example 137b, 1-(6-(4-(5-chloro-6-methyl-1H-indazol-4-yl)-5-methyl-3-((4aS*,7aS*)-4-(oxetan-3-yl)hexahydrofuro[3,4-b]pyrazin-1(2H)-yl)-1H-pyrazol-1-yl)-2-azaspiro[3.3]heptan-2-yl)prop-2-en-1-one]
19 | 8 | C=CC(=O)N1CC2(CC(n3nc(N4CC[C@@H](CN5CCC56COC6)CC4(C)C)c(-c4c(Cl)c(Cl)cc5[nH]ncc45)c3C)C2)C1 (single isomer, unassigned) [Example 307b]
20 | 12 | C=CC(=O)N1CC2(CC(n3nc(N4CCN(C5CCOCC5)CC45CCC5)c(-c4c(Cl)c(Cl)cc5[nH]ncc45)c3C)C2)C1 (single isomer, unassigned) [Example 145b, 1-(6-(4-(5,6-dichloro-1H-indazol-4-yl)-5-methyl-3-(8-(tetrahydro-2H-pyran-4-yl)-5,8-diazaspiro[3.5]nonan-5-yl)-1H-pyrazol-1-yl)-2-azaspiro[3.3]heptan-2-yl)prop-2-en-1-one]
21 | > 50000 | C=CC(=O)N1CC2(CC(n3nc(N4CCN(C(C)=O)CC4)c(-c4c(Cl)ccc5[nH]ncc45)c3C)C2)C1C (single isomer, unassigned) [Example 198a, 1-(6-(3-(4-acetylpiperazin-1-yl)-4-(5-chloro-1H-indazol-4-yl)-5-methyl-1H-pyrazol-1-yl)-1-methyl-2-azaspiro[3.3]heptan-2-yl)prop-2-en-1-one]
22 | 24400 | C=CC(=O)N1CC2(CC(n3nc(N4CCN(C(C)=O)CC4)c(-c4c(Cl)ccc5[nH]ncc45)c3C)C2)C1 (single isomer, unassigned) [Example 36a, 1-(6-(3-(4-acetylpiperazin-1-yl)-4-(5-chloro-1H-indazol-4-yl)-5-methyl-1H-pyrazol-1-yl)-2-azaspiro[3.3]heptan-2-yl)prop-2-en-1-one]
23 | 7 | C=CC(=O)N1CC2(CC(n3nc(N4CCN(CC5COCCOC5)C[C@]4(C)CC)c(-c4c(Cl)c(C)cc5[nH]ncc45)c3C)C2)C1 (single isomer, unassigned) [Example 186b]
24 | 392 | C=CC(=O)N1CC2(CC(n3nc(N4CC[C@@H](CN5CC6(C5)CN(C)C(=O)N6C)CC4(C)C)c(-c4c(Cl)c(Cl)cc5[nH]ncc45)c3C)C2)C1 (single isomer, unassigned) [Example 296a]
25 | 1200 | C=CC(=O)N1CC2(CC(n3nc(N4CC[C@@H](CN5CC6(CCOC6)C5)CC4(C)C)c(-c4c(Cl)c(Cl)cc5[nH]ncc45)c3C)C2)C1 (single isomer, unassigned) [Example 316a]
26 | 10 | C=CC(=O)N1CC2(CC(n3nc(N4CC[C@@H](CN5C[C@@H]6CS(=O)(=O)C[C@@H]6C5)CC4(C)C)c(-c4c(Cl)c(Cl)cc5[nH]ncc45)c3C)C2)C1 (single isomer, unassigned) [Example 294b]
27 | > 5000 | C=CC(=O)N1CC2(CC(n3nc(N4CCN(CC(C)(C)O)C[C@@]4(C)CC)c(-c4c(Cl)c(C)cc5[nH]ncc45)c3C)C2)C1 (single isomer, unassigned) [Example 164a]
28 | 3200 | C=CC(=O)N1CC2(CC(n3nc(N4CCN(C(C)=O)CC4)c(-c4c(C)c(C)cc5[nH]ncc45)c3C)C2)C1 (single isomer, unassigned) [Example 2b, 1-(6-(3-(4-acetylpiperazin-1-yl)-4-(5,6-dimethyl-1H-indazol-4-yl)-5-methyl-1H-pyrazol-1-yl)-2-azaspiro[3.3]heptan-2-yl)prop-2-en-1-one]
